Several values for one entry are separate records, joined by “and”; a condition that tells them apart may be missing. Identical values can stand only once. Entries after “also recorded” stand apart in the source; their conditions may differ. Like-named read-outs stand apart in the source and are kept apart here.
Experiments:
patients with r/r MCL [1] = settings: cited from earlier work
patients = settings: cited from earlier work; for incidence of diarrhea / incidence of second malignancy: ref 10 (ibrutinib), 14 (acalabrutinib), 15 (zanubrutinib)
patients with r/r MCL [2] = assay: phase 1/2 study safety; type: in vivo, human
[3] = pharmacokinetics in patients with r/r MCL
patients with r/r MCL [4] = assay: phase 1/2 study efficacy; type: in vivo, human
[5] = PET assessment, median follow-up 26 months
[6] = 29 patients with best response CR
[7] = IRC-assessed, n=106, follow-up 23.8 mo
[8] = Investigator-assessed, n=106, follow-up 23.8 mo
[9] = PET assessment, median follow-up 18.4 months
[10] = median follow-up of 26.7 months

## CC#CC(=O)N1CCC[C@H]1c1nc(-c2ccc(C(=O)Nc3ccccn3)cc2)c2c(N)nccn12 [acalabrutinib]
Patients with r/r MCL [1]; [5]
  CR: 43%
  ORR: 81%
Patients with r/r MCL [1]; acalabrutinib trial
  median DOR: 26 months
  median PFS: 20 months
patients
  major hemorrhage: 3.0%
  incidence of diarrhea: 31%
  incidence of second malignancy: 12%

## C=CC(=O)N1CCC(c2ccc(C(N)=O)c(-c3ccc(Oc4ccccc4)cc3)n2)CC1 [orelabrutinib]
Patients with r/r MCL [2]; cycle 1, deemed unrelated to treatment
  atrial fibrillation, grade 1: 1 episode
Patients with r/r MCL [2]; n=106
  AEs leading to discontinuation of treatment: 4.7%
  Alanine aminotransferase increase (any grade): Incidence: 10.4%
  Alanine aminotransferase increase (any grade): Number of patients: 11
  All TEAEs: Incidence: 95.3%
  All TEAEs: Number of patients: 101
  All grade ≥3 TEAEs: Incidence: 51.9%
  All grade ≥3 TEAEs: Number of patients: 55
  Anemia (any grade): Incidence: 19.8%
  Anemia (any grade): Number of patients: 21
  Anemia (grade ≥3): Incidence: 7.5%
  Anemia (grade ≥3): Number of patients: 8
  Cough (any grade): Incidence: 16.0%
  Cough (any grade): Number of patients: 17
  Diarrhea (any grade): Incidence: 11.3%
  Diarrhea (any grade): Number of patients: 12
  Disease progression (grade ≥3 AE): Incidence: 4.7%
  Disease progression (grade ≥3 AE): Number of patients: 5
  Grade 3 or higher infection events: 14.2%
  Hematuria (any grade): Incidence: 10.4%
  Hematuria (any grade): Number of patients: 11
  Hyperglycemia (any grade): Incidence: 12.3%
  Hyperglycemia (any grade): Number of patients: 13
  Hypertension (any grade): Incidence: 17%
  Hypertension (any grade): Number of patients: 18
  Hypertension (grade ≥3): Incidence: 5.7%
  Hypertension (grade ≥3): Number of patients: 6
  Hypoalbuminemia (any grade): Incidence: 10.4%
  Hypoalbuminemia (any grade): Number of patients: 11
  Hypokalemia (any grade): Incidence: 17.0%
  Hypokalemia (any grade): Number of patients: 18
  Hypokalemia (grade ≥3): Incidence: 2.8%
  Hypokalemia (grade ≥3): Number of patients: 3
  Leukocytosis (grade ≥3): Incidence: 3.8%
  Leukocytosis (grade ≥3): Number of patients: 4
  Leukopenia (any grade): Incidence: 19.8%
  Leukopenia (any grade): Number of patients: 21
  Lymphocytosis (grade ≥3): Incidence: 3.8%
  Lymphocytosis (grade ≥3): Number of patients: 4
  Neutropenia (any grade): Incidence: 24.5%
  Neutropenia (any grade): Number of patients: 26
  Neutropenia (grade ≥3): Incidence: 8.5%
  Neutropenia (grade ≥3): Number of patients: 9
  Pneumonia (any grade): Incidence: 11.3%
  Pneumonia (any grade): Number of patients: 12
  Pneumonia (grade ≥3): Incidence: 5.7%
  Pneumonia (grade ≥3): Number of patients: 6
  Pneumonitis (any grade): Incidence: 17.9%
  Pneumonitis (any grade): Number of patients: 19
  Pneumonitis (grade ≥3): Incidence: 3.8%
  Pneumonitis (grade ≥3): Number of patients: 4
  Prolonged QT interval (any grade): Incidence: 11.3%
  Prolonged QT interval (any grade): Number of patients: 12
  Pyrexia (any grade): Incidence: 12.3%
  Pyrexia (any grade): Number of patients: 13
  Rash (any grade): Incidence: 17.0%
  Rash (any grade): Number of patients: 18
  SAE Pneumonia: Incidence: 5.7%
  SAE Pneumonitis: Incidence: 4.7%
  SAE Progressive disease: Incidence: 4.7%
  Soft tissue infection (grade ≥3): Incidence: 2.8%
  Soft tissue infection (grade ≥3): Number of patients: 3
  Thrombocytopenia (any grade): Incidence: 34.0%
  Thrombocytopenia (any grade): Number of patients: 36
  Thrombocytopenia (grade ≥3): Incidence: 13.2%
  Thrombocytopenia (grade ≥3): Number of patients: 14
  Upper respiratory tract infection (any grade): Incidence: 27.4%
  Upper respiratory tract infection (any grade): Number of patients: 29
  Weight increase (any grade): Incidence: 11.3%
  Weight increase (any grade): Number of patients: 12
  bleeding events (any): 34.9%
  bleeding events grade 1: 31.1%
  bleeding events grade 2: 3.8%
  death from infection due to acute myeloid leukemia: 1%
  death from lung infection due to the common cold: 1%
  deaths due to drug-related AEs (fatal TRAEs): no fatal TRAEs were reported; also recorded: No deaths due to drug-related AEs were reported
  deaths from AEs deemed unrelated to treatment: 2%
  deaths from disease progression: 15%
  diarrhea judged as related to treatment: 3.8%
  discontinued treatment because of drug-related AEs: 2.8%
  drug-related grade 3 or higher infection events: 6.6%
  drug-related infection events: 34%
  drug-related pneumonia: 7.5%
  drug-related upper respiratory tract infection: 13.2%
  grade 3 or higher second primary malignancy, atrial fibrillation/flutter, diarrhea, or bleeding events: No grade 3 or higher second primary malignancy, atrial fibrillation/flutter, diarrhea, or bleeding events were observed
  major hemorrhage (grade 3 or higher, serious, or any grade CNS bleeding): No patient experienced major hemorrhage
  microscopic hematuria: 6.6%
  patients who died during the study: 27 patients
  patients with treatment-related grade 3 or higher AEs: 34.9%
  petechiae: 4.7%
  proportion of AEs that were grade 1 or 2: 89%
  purpura: 4.7%
  rate of second malignancy: 2.8%
  second primary malignancy: 3 patients
  treatment-related AEs leading to dose interruption: 17%
  treatment-related anemia: 14.2%
  treatment-related decreases in neutrophils: 22.6%
  treatment-related decreases in platelets: 32.1%
  treatment-related decreases in white blood cells: 18.9%
  treatment-related hypertension: 15.1%
[3]; human, in vivo, 150 mg, Tmax (median, minimum-maximum), Day 1 single, 150 mg
  Tmax: 2 h
[3]; patients with r/r MCL
  Coefficients of variation of pharmacokinetic parameters: < 30%
Patients with r/r MCL [4]; [6]
  DOR rate at 24 months: ~80%
  OS at 24 months: ~100%
  PFS rate at 24 months: ~80%
Patients with r/r MCL [4]; CT/MRI, baseline median SPD 2514.4 mm^2
  median reduction percentage in the SPD of target lesions: 87.2%
Patients with r/r MCL [4]; IRC assessment, n=106
  patients with objective response: 86 patients
Patients with r/r MCL [4]; IRC-assessed
  median DOR: 22.9 months
Patients with r/r MCL [4]; [7]
  CR: 27.4%
  DCR: 86.8 (78.8-92.6) %
  PD: 8.5%
  PR: 53.8%
Patients with r/r MCL [4]; IRC-assessed, n=106, median follow-up 23.8 mo
  ORR: 81.1 (72.4-88.1) %
Patients with r/r MCL [4]; IRC, follow-up 10.5 mo
  CR: 25.5%
Patients with r/r MCL [4]; [8]
  CR: 34.9%
  DCR: 87.7 (79.9-93.3) %
  ORR: 82.1 (73.4-88.9) %
  PD: 5.7%
  PR: 47.2%
Patients with r/r MCL [4]; full analysis set
  median PFS: 22.0 months and 22 months
Patients with r/r MCL [4]; investigator assessment, n=106
  patients with objective response: 87 patients
Patients with r/r MCL [4]; n=106
  median TTR: 1.9 months
Patients with r/r MCL [4]; subgroup Age ≥65
  ORR (95% CI), IRC: 83.3%
Patients with r/r MCL [4]; subgroup Baseline Splenomegaly Yes
  ORR (95% CI), IRC: 66.7%
Patients with r/r MCL [4]; subgroup Ki-67 ≥30%
  ORR (95% CI), IRC: 79.4%
Patients with r/r MCL [4]; subgroup Prior CD20 Antibody Therapy No
  ORR (95% CI), IRC: 91.7%
Patients with r/r MCL [4]; subgroup Prior lines of therapy ≥2
  ORR (95% CI), IRC: 75.9%
Patients with r/r MCL [4]; subgroup Tumor Stage III/IV
  ORR (95% CI), IRC: 80%
Patients with r/r MCL [4]; subgroup longest target lesion ≥10 cm (bulky disease)
  ORR (95% CI), IRC: 81.8%

## C=CC(=O)N1CCC([C@@H]2CCNc3c(C(N)=O)c(-c4ccc(Oc5ccccc5)cc4)nn32)CC1 [zanubrutinib]
Patients with r/r MCL [1]; [9]
  CR: 68.6%
  ORR: 84%
Patients with r/r MCL [1]
  median TTR: 2.8 months
Patients with r/r MCL [1]; zanubrutinib trial
  median DOR: 19.5 months
  median PFS: 22.1 months
patients
  major hemorrhage: 5.4%
  rate of treatment discontinuation: 12.5%
  incidence of diarrhea: 23%
  incidence of second malignancy: 14%

## C=CC(=O)N1CCC[C@@H](n2nc(-c3ccc(Oc4ccccc4)cc3)c3c(N)ncnc32)C1 [ibrutinib]
Patients with r/r MCL [1]
  median TTR: 1.9 months
Patients with r/r MCL [1]; [10]
  ORR in patients with bulky tumors: 67%
  ORR in patients with ≥2 prior treatments: 63%
Patients with r/r MCL [1]; pivotal study 1104, r/r MCL, median 15.3-month follow-up, CT-based
  ORR: 65.8%
Patients with r/r MCL [1]; pivotal study 1104
  median DOR: 17.5 months
  median PFS: 13.9 months
Patients with r/r MCL [1]; pivotal study 1104, median 15.3-month follow-up, CT-based
  CR: 17.1%
patients
  grade 3 or greater atrial fibrillation and atrial flutter: 4%
  grade 3 or higher hypertension events: 8%

Source: PMC10432605 (Blood Advances, 2023)
